Values after ≈ are worked out from the molar mass of the structure shown.
Assays:
S. aureus NRS384 = assay: Broth minimum inhibitory concentration (MIC) assay 2; format: cell-based, Staphylococcus aureus; details: S. aureus NRS384 in TSB, 24 hours at 37° C., OD600, median of at least two independent experiments; for MIC: Staphylococcus aureus, read-out: S. aureus Broth MIC
Experimental: To test the potency of rifamycin analogs of the disclosure in vitro, a broth growth inhibition assay was developed. For the assay, S. aureus NRS384 was grown in Tryptic Soy Broth (TSB) overnight, then sub-cultured 1:50 in fresh TSB and grown for an additional two hours. The culture was then pelleted via centrifugation and washed twice in PBS. The culture was then diluted to 1×10^6 cfu/mL in TSB and 100 μL of the suspension was added per well to a 2 mL dilution plate in triplicate. […] The plates were sealed and incubated at 37° C. with shaking for 24 hours, then 150 μL of each sample was added to 96 well microtiter plates and the OD600 nm was read on a Spectramax i3 Minimax 300.
The broth MIC experiments were assessed in at least two independent experiments and the median value is captured below unless indicated otherwise.

[1] = system: intracellular S. aureus NRS384 in THP-1 macrophages; assay: Intracellular killing assay 2 (rifamycin analogs, S. aureus in THP-1 macrophages); format: cell-based, Staphylococcus aureus; details: Staphylococcus aureus, NRS384, 2 h; lowest concentration giving intracellular S. aureus below limit of detection (50 cfu/mL) in THP-1 macrophages; median of at least two experiments; read-out: S. aureus Intracellular killing MIC
Experimental: THP-1 monocytic cell line was grown in media (RMPI+10% FBS+1% Penicillin/Streptomycin), then seeded at a density of 1e5 cells/well in a 96 well plate and differentiated into macrophages for three days prior to infection using 200 nM PMA. An overnight culture of S. aureus NRS384 was grown in RPMI, washed twice with PBS and resuspended at 1e7 cfu/mL in PBS. THP-1 were washed with warm media (RMPI without FBS) to remove the Penicillin/Streptomycin and then infected with the S. aureus suspension at a multiplicity of infection of 10:1 (S. aureus: macrophages). Plates were spun at 300×g for 5 minutes to synchronize adhesion of the bacteria, then incubated at 37° C. for 2 hours. Free-floating bacteria were removed by washing 2× with warm media and remaining extracellular S. aureus were killed by addition of media containing gentamicin (50 ug/mL). […] The compounds were added in media containing 50 µg/mL gentamicin to prevent extracellular growth of S. aureus. After 2 hours, plates were washed 2× with warm RPMI without FBS, and 100 ul of THP-1 lysis buffer (0.1% Triton in PBS) was added to each well. S. aureus survival was enumerated by colony forming units through serial dilution and plating onto TSA.
The intracellular MIC value indicated represents the median value of at least two independent experiments, unless indicated otherwise.

| MIC (S. aureus NRS384) [µM] | S. aureus Broth MIC (S. aureus NRS384) [µM] | Structure (SMILES) | MIC [1] [µM] |
| --- | --- | --- | --- |
| 0.0625 (≈ 0.0573 µg/mL) | – | CO[C@H]1/C=C/O[C@@]2(C)Oc3c(C)c(O)c4c(=O)c(c5oc6cc(OCCOCCN(C)C)ccc6nc-5c4c3C2=O)NC(=O)/C(C)=C\C=C\[C@H](C)[C@H](O)[C@@H](C)[C@@H](O)[C@@H](C)[C@H](OC(C)=O)[C@@H]1C [Analog 16s] | 1 (≈ 0.916 µg/mL) |
| 0.0625 (≈ 0.0563 µg/mL) | – | CCN(CC)CCOc1ccc2nc3c4c5c6c(C)c(O)c4c(=O)c(c-3oc2c1)NC(=O)/C(C)=C\C=C\[C@H](C)[C@H](O)[C@@H](C)[C@@H](O)[C@@H](C)[C@H](OC(C)=O)[C@H](C)[C@@H](OC)/C=C/O[C@@](C)(O6)C5=O [Analog 16t] | 1 (≈ 0.9 µg/mL) |
| 1 (≈ 0.928 µg/mL) | – | CO[C@H]1/C=C/O[C@@]2(C)Oc3c(C)c(O)c4c(=O)c(c5oc6cc(OCCN(C(C)C)C(C)C)ccc6nc-5c4c3C2=O)NC(=O)/C(C)=C\C=C\[C@H](C)[C@H](O)[C@@H](C)[C@@H](O)[C@@H](C)[C@H](OC(C)=O)[C@@H]1C [Analog 16u] | 1 (≈ 0.928 µg/mL) |
| 0.0625 (≈ 0.0584 µg/mL) | – | CO[C@H]1/C=C/O[C@@]2(C)Oc3c(C)c(O)c4c(=O)c(c5oc6cc(OCCN(C)c7ccccn7)ccc6nc-5c4c3C2=O)NC(=O)/C(C)=C\C=C\[C@H](C)[C@H](O)[C@@H](C)[C@@H](O)[C@@H](C)[C@H](OC(C)=O)[C@@H]1C [Analog 16v] | 1 (≈ 0.935 µg/mL) |
| 0.0625 (≈ 0.0593 µg/mL) | – | CO[C@H]1/C=C/O[C@@]2(C)Oc3c(C)c(O)c4c(=O)c(c5oc6cc(OCc7ccccc7CN(C)C)ccc6nc-5c4c3C2=O)NC(=O)/C(C)=C\C=C\[C@H](C)[C@H](O)[C@@H](C)[C@@H](O)[C@@H](C)[C@H](OC(C)=O)[C@@H]1C [Analog 16w] | > 1 |
| 0.000977 (≈ 0.000866 µg/mL) | – | CO[C@H]1/C=C/O[C@@]2(C)Oc3c(C)c(O)c4c(=O)c(c5oc6cc(OCCNC(C)=O)ccc6nc-5c4c3C2=O)NC(=O)/C(C)=C\C=C\[C@H](C)[C@H](O)[C@@H](C)[C@@H](O)[C@@H](C)[C@H](OC(C)=O)[C@@H]1C [Analog 16x] | > 1 |
| 0.0156 (≈ 0.014 µg/mL) | – | CO[C@H]1/C=C/O[C@@]2(C)Oc3c(C)c(O)c4c(=O)c(c5oc6cc(OCCn7ccnc7)ccc6nc-5c4c3C2=O)NC(=O)/C(C)=C\C=C\[C@H](C)[C@H](O)[C@@H](C)[C@@H](O)[C@@H](C)[C@H](OC(C)=O)[C@@H]1C [Analog 16y] | > 1 |
| 0.00391 (≈ 0.00346 µg/mL) | – | CO[C@H]1/C=C/O[C@@]2(C)Oc3c(C)c(O)c4c(=O)c(c5oc6cc(OCCN7CCC7)ccc6nc-5c4c3C2=O)NC(=O)/C(C)=C\C=C\[C@H](C)[C@H](O)[C@@H](C)[C@@H](O)[C@@H](C)[C@H](OC(C)=O)[C@@H]1C [Analog 16z-1] | 1 (≈ 0.884 µg/mL) |
| 0.00391 (≈ 0.00352 µg/mL) | – | CO[C@H]1/C=C/O[C@@]2(C)Oc3c(C)c(O)c4c(=O)c(c5oc6cc(OCCN(C)C(C)=O)ccc6nc-5c4c3C2=O)NC(=O)/C(C)=C\C=C\[C@H](C)[C@H](O)[C@@H](C)[C@@H](O)[C@@H](C)[C@H](OC(C)=O)[C@@H]1C [Analog 16z] | > 1 |
| 0.0156 (≈ 0.014 µg/mL) | – | CO[C@H]1/C=C/O[C@@]2(C)Oc3c(C)c(O)c4c(=O)c(c5oc6cc(OC7CCN(C)CC7)ccc6nc-5c4c3C2=O)NC(=O)/C(C)=C\C=C\[C@H](C)[C@H](O)[C@@H](C)[C@@H](O)[C@@H](C)[C@H](OC(C)=O)[C@@H]1C [Analog 17] | 0.2 (≈ 0.18 µg/mL) |
| 0.00391 (≈ 0.00347 µg/mL) | – | CO[C@H]1/C=C/O[C@@]2(C)Oc3c(C)c(O)c4c(=O)c(c5oc6cc(OCCN(C)C)cc(O)c6nc-5c4c3C2=O)NC(=O)/C(C)=C\C=C\[C@H](C)[C@H](O)[C@@H](C)[C@@H](O)[C@@H](C)[C@H](OC(C)=O)[C@@H]1C [Analog 29] | 0.04 (≈ 0.0355 µg/mL) |
| – | 0.0156 | CO[C@H]1/C=C/O[C@@]2(C)Oc3c(C)c(O)c4c(=O)c(c5oc6cc(F)ccc6nc-5c4c3C2=O)NCC(=O)/C(C)=C\C=C\[C@H](C)[C@H](O)[C@@H](C)[C@@H](O)[C@@H](C)[C@H](OC(C)=O)[C@@H]1C [Analog P3] | – |
| 0.000977 (≈ 0.000906 µg/mL) | – | CO[C@H]1/C=C/O[C@@]2(C)Oc3c(C)c(O)c4c(=O)c(c5oc6cc(N7CCC(N(C)C)CC7)cc(O)c6nc-5c4c3C2=O)NC(=O)/C(C)=C\C=C\[C@H](C)[C@H](O)[C@@H](C)[C@@H](O)[C@@H](C)[C@H](OC(C)=O)[C@@H]1C [Rifalog, reference compound] | – |

From patent US11666658B2, “Rifamycin analogs and antibody-drug conjugates thereof” (Regeneron Pharmaceuticals, Inc., priority 2018, dated 2023)
